Results published in PubChem BioAssay (NCI).
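Five concentrations, 48 hours, 96-well plates. GI50: concentration for 50% inhibition of growth. TGI is the concentration that stops growth completely.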

Tests used:
Experiment in all cases: NCI anticancer screen, dose series, 48 h
786-0 renal = tested on: 786-0 renal
A498 renal = tested on: A498 renal
A549 NSCLC = tested on: A549 NSCLC
ACHN renal = tested on: ACHN renal
BT-549 breast = tested on: BT-549 breast
CAKI-1 renal = tested on: CAKI-1 renal
CCRF-CEM leukemia = tested on: CCRF-CEM leukemia
COLO 205 colon = tested on: COLO 205 colon
DU-145 prostate = tested on: DU-145 prostate
EKVX NSCLC = tested on: EKVX NSCLC
HCC-2998 colon = tested on: HCC-2998 colon
HCT-116 colon = tested on: HCT-116 colon
HCT-15 colon = tested on: HCT-15 colon
HL-60(TB) leukemia = tested on: HL-60(TB) leukemia
HOP-62 NSCLC = tested on: HOP-62 NSCLC
HOP-92 NSCLC = tested on: HOP-92 NSCLC
HS 578T breast = tested on: HS 578T breast
HT29 colon = tested on: HT29 colon
IGROV1 ovarian = tested on: IGROV1 ovarian
K-562 leukemia = tested on: K-562 leukemia
KM12 colon = tested on: KM12 colon
LOX IMVI melanoma = tested on: LOX IMVI melanoma
M14 melanoma = tested on: M14 melanoma
MALME-3M melanoma = tested on: MALME-3M melanoma
MCF7 breast = tested on: MCF7 breast
MDA-MB-231 breast = tested on: MDA-MB-231 breast
MDA-MB-435 = tested on: MDA-MB-435
MOLT-4 leukemia = tested on: MOLT-4 leukemia
NCI-H226 lung = tested on: NCI-H226 lung
NCI-H23 lung = tested on: NCI-H23 lung
NCI-H460 lung = tested on: NCI-H460 lung
NCI-H522 lung = tested on: NCI-H522 lung
NCI/ADR-RES ovarian = tested on: NCI/ADR-RES ovarian
OVCAR-3 ovarian = tested on: OVCAR-3 ovarian
OVCAR-4 ovarian = tested on: OVCAR-4 ovarian
OVCAR-5 ovarian = tested on: OVCAR-5 ovarian
OVCAR-8 ovarian = tested on: OVCAR-8 ovarian
PC-3 prostate = tested on: PC-3 prostate
RPMI-8226 leukemia = tested on: RPMI-8226 leukemia
RXF 393 renal = tested on: RXF 393 renal
SF-268 CNS = tested on: SF-268 CNS
SF-295 CNS = tested on: SF-295 CNS
SF-539 CNS = tested on: SF-539 CNS
SK-MEL-2 melanoma = tested on: SK-MEL-2 melanoma
SK-MEL-28 melanoma = tested on: SK-MEL-28 melanoma
SK-MEL-5 melanoma = tested on: SK-MEL-5 melanoma
SK-OV-3 ovarian = tested on: SK-OV-3 ovarian
SN12C renal = tested on: SN12C renal
SNB-19 CNS = tested on: SNB-19 CNS
SNB-75 CNS = tested on: SNB-75 CNS
SR leukemia = tested on: SR leukemia
SW-620 colon = tested on: SW-620 colon
T-47D breast = tested on: T-47D breast
TK-10 renal = tested on: TK-10 renal
U251 CNS = tested on: U251 CNS
UACC-257 melanoma = tested on: UACC-257 melanoma
UACC-62 melanoma = tested on: UACC-62 melanoma
UO-31 renal = tested on: UO-31 renal

What does the source list for `O=C1[C@H]2Cc3c([nH]c4ccccc34)[C@@H](c3ccc(Br)cc3)N2C(=O)CN1C1CCN(Cc2ccccc2)CC1`?
GI50 (786-0 renal): 3.46 µM; TGI (786-0 renal): 7 µM; GI50 (A498 renal): 4.28 µM; TGI (A498 renal): 8.04 µM; GI50 (A549 NSCLC): 3.7 µM; TGI (A549 NSCLC): 13.5 µM; GI50 (ACHN renal): 3.76 µM; TGI (ACHN renal): 9.65 µM; GI50 (BT-549 breast): 3.4 µM; TGI (BT-549 breast): 7.49 µM; GI50 (CAKI-1 renal): 2440 nM; TGI (CAKI-1 renal): 7.58 µM; GI50 (CCRF-CEM leukemia): 3.3 µM; TGI (CCRF-CEM leukemia): > 25 µM; GI50 (COLO 205 colon): 2620 nM; TGI (COLO 205 colon): 6.04 µM; GI50 (DU-145 prostate): 7.12 µM; TGI (DU-145 prostate): > 25 µM; GI50 (EKVX NSCLC): 3.35 µM; TGI (EKVX NSCLC): 14.7 µM; GI50 (HCC-2998 colon): 3.44 µM; TGI (HCC-2998 colon): 7.94 µM; GI50 (HCT-116 colon): 2540 nM; TGI (HCT-116 colon): 5.72 µM; GI50 (HCT-15 colon): 2620 nM; TGI (HCT-15 colon): 5.92 µM; GI50 (HL-60(TB) leukemia): 2300 nM; TGI (HL-60(TB) leukemia): 8.31 µM; GI50 (HOP-62 NSCLC): 3.98 µM; TGI (HOP-62 NSCLC): 10.8 µM; GI50 (HOP-92 NSCLC): 2650 nM; TGI (HOP-92 NSCLC): 6.57 µM; GI50 (HS 578T breast): 3.4 µM; TGI (HS 578T breast): 9.29 µM; GI50 (HT29 colon): 3000 nM; TGI (HT29 colon): 7.74 µM; GI50 (IGROV1 ovarian): 1490 nM; TGI (IGROV1 ovarian): 5.8 µM; GI50 (K-562 leukemia): 1060 nM; TGI (K-562 leukemia): 9.94 µM; GI50 (KM12 colon): 5.49 µM; TGI (KM12 colon): 18.1 µM; GI50 (LOX IMVI melanoma): 2730 nM; TGI (LOX IMVI melanoma): 6.92 µM; GI50 (M14 melanoma): 3.24 µM; TGI (M14 melanoma): 8.35 µM; GI50 (MALME-3M melanoma): 3.69 µM; TGI (MALME-3M melanoma): 7.81 µM; GI50 (MCF7 breast): 1140 nM; TGI (MCF7 breast): 4.75 µM; GI50 (MDA-MB-231 breast): 3.44 µM; TGI (MDA-MB-231 breast): 7.56 µM; GI50 (MDA-MB-435): 3.5 µM; TGI (MDA-MB-435): 7.02 µM; GI50 (MOLT-4 leukemia): 1500 nM; TGI (MOLT-4 leukemia): > 25 µM; GI50 (NCI-H226 lung): 5.04 µM; TGI (NCI-H226 lung): > 25 µM; GI50 (NCI-H23 lung): 3.98 µM; TGI (NCI-H23 lung): 9.4 µM; GI50 (NCI-H460 lung): 3.87 µM; TGI (NCI-H460 lung): 7.82 µM; GI50 (NCI-H522 lung): 4.6 µM; TGI (NCI-H522 lung): 10.3 µM; GI50 (NCI/ADR-RES ovarian): 3.58 µM; TGI (NCI/ADR-RES ovarian): 9.46 µM; GI50 (OVCAR-3 ovarian): 3.27 µM; TGI (OVCAR-3 ovarian): 7.23 µM; GI50 (OVCAR-4 ovarian): 4.24 µM; TGI (OVCAR-4 ovarian): 13.1 µM; GI50 (OVCAR-5 ovarian): 5.1 µM; TGI (OVCAR-5 ovarian): 12.7 µM; GI50 (OVCAR-8 ovarian): 3.99 µM; TGI (OVCAR-8 ovarian): 9.01 µM; GI50 (PC-3 prostate): 1670 nM; TGI (PC-3 prostate): 7.3 µM; GI50 (RPMI-8226 leukemia): 1740 nM; TGI (RPMI-8226 leukemia): 7.67 µM; GI50 (RXF 393 renal): 2910 nM; TGI (RXF 393 renal): 6.41 µM; GI50 (SF-268 CNS): 3.49 µM; TGI (SF-268 CNS): > 25 µM; GI50 (SF-295 CNS): 4.56 µM; TGI (SF-295 CNS): 9.1 µM; GI50 (SF-539 CNS): 3.61 µM; TGI (SF-539 CNS): 7.03 µM; GI50 (SK-MEL-2 melanoma): 5.73 µM; TGI (SK-MEL-2 melanoma): 14.9 µM; GI50 (SK-MEL-28 melanoma): 4.41 µM; TGI (SK-MEL-28 melanoma): 8.53 µM; GI50 (SK-MEL-5 melanoma): 3.84 µM; TGI (SK-MEL-5 melanoma): 7.29 µM; GI50 (SK-OV-3 ovarian): 6 µM; TGI (SK-OV-3 ovarian): > 25 µM; GI50 (SN12C renal): 3.17 µM; TGI (SN12C renal): 6.72 µM; GI50 (SNB-19 CNS): 6.77 µM; TGI (SNB-19 CNS): > 25 µM; GI50 (SNB-75 CNS): 745 nM; TGI (SNB-75 CNS): 18.3 µM; GI50 (SR leukemia): 1860 nM; TGI (SR leukemia): 8.79 µM; GI50 (SW-620 colon): 3.32 µM; TGI (SW-620 colon): 7.15 µM; GI50 (T-47D breast): 3.54 µM; TGI (T-47D breast): 15.7 µM; GI50 (TK-10 renal): 5.79 µM; TGI (TK-10 renal): 12.7 µM; GI50 (U251 CNS): 2960 nM; TGI (U251 CNS): 6.53 µM; GI50 (UACC-257 melanoma): 4.64 µM; TGI (UACC-257 melanoma): 10.2 µM; GI50 (UACC-62 melanoma): 3.58 µM; TGI (UACC-62 melanoma): 9.3 µM; GI50 (UO-31 renal): 1130 nM; TGI (UO-31 renal): 18.2 µM
